Results from ChEMBL document CHEMBL1201862, “PubChem BioAssay data set” (2004).
Activity calls are given as the source filed them.

Assays:
[1] = target: Scavenger receptor class B member 1 (Mus musculus, UniProt Q61009); assay: mouse SR-BI DiI-HDL uptake blockers – ldlA[mSR-BI] cells, fluorescence, cherry pick, dose response (AID 493194); assay type: functional, cell-based;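 also: cellular uptake of fluorescent DiI-labeled HDL measured as cell fluorescence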
[2] = reduction of Shn3 3'UTR-driven luciferase in osteoblasts – cell-based, Clone20 osteoblasts, firefly luciferase, cherry-picked, dose response (AID 624132); assay type: functional;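 also: firefly luciferase luminescence from reporter carrying the Shn3 3'UTR in osteoblasts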
[3] = tested on: Streptococcus sp. 'group A'; assay: Streptococcus pyogenes SK(-)GAS viability under kanamycin – luminescence, BacTiterGlo, confirmation, counter-screen for streptokinase expression inhibitor project, dose response (AID 1900); assay type: functional, organism-based
[4] = non-specific 3'UTR reporter inhibition in Clone20-Shn3RL – cell-based, Renilla luciferase, cherry-picked, counter-screen for Shn3 inhibitor project, dose response (AID 624133); assay type: functional
[5] = microbe, parasite or virus in culture; assay type: functional; conditions: Mycobacterium tuberculosis
[6] = target: T1, Streptokinase A (Streptococcus pyogenes serotype M1, UniProt P10520); assay: viability-normalized secreted streptokinase activity reduction – plasminogen activation absorbance, OD405, dose response (AID 1914); assay type: functional, Streptococcus pyogenes M1 GAS;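 also: secreted streptokinase activity via plasminogen activation per viability signal from cell pellet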
T1 sequence (P10520 whole entry): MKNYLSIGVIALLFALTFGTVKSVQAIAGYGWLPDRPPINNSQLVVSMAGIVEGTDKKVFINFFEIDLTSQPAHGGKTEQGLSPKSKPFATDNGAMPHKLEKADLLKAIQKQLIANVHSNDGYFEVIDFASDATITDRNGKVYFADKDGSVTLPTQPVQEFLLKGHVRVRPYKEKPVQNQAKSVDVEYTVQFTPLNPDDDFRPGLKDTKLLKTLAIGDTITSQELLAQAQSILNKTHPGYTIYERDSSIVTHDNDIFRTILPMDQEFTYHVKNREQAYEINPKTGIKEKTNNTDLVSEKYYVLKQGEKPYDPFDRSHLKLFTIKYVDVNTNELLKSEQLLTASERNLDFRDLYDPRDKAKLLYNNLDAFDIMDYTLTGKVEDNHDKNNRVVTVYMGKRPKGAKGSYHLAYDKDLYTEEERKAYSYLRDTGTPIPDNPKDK

[7] = target: Beta-galactosidase (Escherichia coli, UniProt Q8VNN2); assay: detection-enzyme interference by beta-gal modulators – biochemical, E. coli enzyme, set 3, artefact control for CCR6 antagonist project, dose response (AID 504712); assay type: functional
[8] = loss of viability in HepG2 cells – cell-based, CellTiter-Glo, cherry-picked, cytotoxicity control for Shn3 inhibitor project, dose response (AID 624134); assay type: functional
[9] = target: T2, Sphingosine 1-phosphate receptor 4 (Homo sapiens, UniProt O95977); assay: Fluorescence dose response cell-based high throughput screening assay for antagonists of the Sphingosine 1-Phosphate Receptor 4 (S1P4). [Related pubchem assays: 1524 (Confirmation in triplicates.), 1510 (Primary screen.)]; assay type: functional
T2 sequence (O95977 whole entry): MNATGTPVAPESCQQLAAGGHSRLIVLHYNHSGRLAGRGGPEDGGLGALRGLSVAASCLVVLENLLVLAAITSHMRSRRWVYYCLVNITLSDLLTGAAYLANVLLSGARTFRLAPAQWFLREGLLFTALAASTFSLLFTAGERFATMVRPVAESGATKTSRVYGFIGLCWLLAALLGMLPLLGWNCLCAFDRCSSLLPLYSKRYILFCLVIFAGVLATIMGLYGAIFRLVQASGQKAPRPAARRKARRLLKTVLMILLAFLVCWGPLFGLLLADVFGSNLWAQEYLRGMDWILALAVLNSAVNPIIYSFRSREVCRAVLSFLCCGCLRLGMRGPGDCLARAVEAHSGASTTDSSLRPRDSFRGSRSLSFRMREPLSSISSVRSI

[10] = tested on: Streptococcus; assay: GAS UMAA2166 growth inhibition – luminescence, BacTiterGlo, counter-screen for streptokinase expression inhibitor project, dose response (AID 1915); assay type: functional, organism-based;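 also: potency for reduction of bacterial viability or growth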
[11] = target: Neurotensin receptor type 1 (Homo sapiens, UniProt P30989); assay type: functional;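 also: Image-based confirmatory dose-response assay measuring agonist activity at NTR1; NTR1-expressing U2OS osteosarcoma cells imaged for beta-arrestin GFP spot formation; agonist potency where compounds increase beta-arrestin recruitment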
Sequence of Neurotensin receptor type 1 (P30989 whole entry): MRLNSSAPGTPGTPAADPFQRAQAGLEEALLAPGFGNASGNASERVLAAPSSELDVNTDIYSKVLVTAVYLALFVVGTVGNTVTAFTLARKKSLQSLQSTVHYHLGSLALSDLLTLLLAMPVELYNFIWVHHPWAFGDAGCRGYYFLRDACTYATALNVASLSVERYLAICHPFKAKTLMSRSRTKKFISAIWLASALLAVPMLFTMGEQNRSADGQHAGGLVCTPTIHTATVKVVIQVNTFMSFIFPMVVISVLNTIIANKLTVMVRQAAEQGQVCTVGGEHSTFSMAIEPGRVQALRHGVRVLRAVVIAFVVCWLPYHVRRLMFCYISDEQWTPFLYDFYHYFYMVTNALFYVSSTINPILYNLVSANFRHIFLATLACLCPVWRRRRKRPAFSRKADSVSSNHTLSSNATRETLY

[12] = target: T3, Heat shock factor protein 1 (Mus musculus, UniProt P38532); assay: decrease of HSF1-responsive luciferase luminescence – cell-based, NIH3T3, dose retest, confirmation (AID 2382); assay type: functional;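 also: NIH3T3 fibroblasts with HSF1-driven luciferase reporter stressed by proteasome inhibitor MG132; luminescence from HSF1-driven luciferase expression after 8 hours of MG132 stress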
T3 sequence (P38532 whole entry): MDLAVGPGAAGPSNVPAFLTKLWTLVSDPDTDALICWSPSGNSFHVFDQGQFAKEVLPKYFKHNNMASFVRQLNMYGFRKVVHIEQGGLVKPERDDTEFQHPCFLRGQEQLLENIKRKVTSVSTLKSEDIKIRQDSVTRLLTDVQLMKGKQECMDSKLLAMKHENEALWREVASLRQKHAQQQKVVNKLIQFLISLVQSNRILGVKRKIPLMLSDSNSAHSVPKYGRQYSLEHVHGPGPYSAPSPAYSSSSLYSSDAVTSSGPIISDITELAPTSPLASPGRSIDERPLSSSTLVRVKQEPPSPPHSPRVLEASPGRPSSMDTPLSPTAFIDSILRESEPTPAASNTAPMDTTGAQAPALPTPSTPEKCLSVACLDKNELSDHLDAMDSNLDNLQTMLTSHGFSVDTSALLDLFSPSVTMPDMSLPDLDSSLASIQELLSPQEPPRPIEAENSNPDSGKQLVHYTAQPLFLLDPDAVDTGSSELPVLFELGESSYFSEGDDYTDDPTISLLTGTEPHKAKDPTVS

[13] = target: T2, Sphingosine 1-phosphate receptor 4; assay: Late stage fluorescence dose response cell-based screening assay for antagonists of the Sphingosine 1-Phosphate Receptor 4 (S1P4). [Related pubchem assays: 1524 (Confirmation screen (S1P4 antagonists).), 1510 (Primary screen (S1P4 antagonists).), 1853 (Summary AID (S1P4 antagonists).), 1692 (Dose response screen (S1P4 antagonists).)]; assay type: functional
[14] = target: Sphingosine 1-phosphate receptor 1 (Homo sapiens, UniProt P21453); assay type: functional;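 also: Tango beta-arrestin reporter U2OS cells stimulated with S1P near its EC80; inhibitor potency meaning antagonism of receptor activation by the natural agonist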
[15] = target: Heat shock protein HSP 90-alpha (Homo sapiens, UniProt P07900); assay type: functional, organism-based
[16] = target: Cyclin-dependent kinase 5/CDK5 activator 1 (Homo sapiens, UniProt Q00535); assay: blockade of human CDK5 activity – biochemical, cherry-picked samples, set 2, dose response (AID 504545)
[17] = target: T4, Beta-lactamase (Pseudomonas aeruginosa, UniProt Q79MP6); assay: […] counterscreen for selective VIM-2 inhibitors: dose response biochemical high throughput screening assay to identify inhibitors of IMP-1 metallo-beta-lactamase.
T4 sequence (Q79MP6 whole entry): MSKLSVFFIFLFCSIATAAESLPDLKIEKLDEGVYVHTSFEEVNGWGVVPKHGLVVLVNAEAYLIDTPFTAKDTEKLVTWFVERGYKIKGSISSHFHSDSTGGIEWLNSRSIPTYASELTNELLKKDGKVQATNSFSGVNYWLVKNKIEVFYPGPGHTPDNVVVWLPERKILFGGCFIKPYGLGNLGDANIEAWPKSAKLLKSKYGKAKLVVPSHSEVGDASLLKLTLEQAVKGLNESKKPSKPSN

[18] = target: Beta-lactamase (Salmonella choleraesuis (strain SC-B67), UniProt Q5J463); assay: Epi-absorbance-based counterscreen for selective VIM-2 inhibitors: dose response biochemical high throughput screening assay to identify inhibitors of TEM-1 serine-beta-lactamase.
[19] = target: T4, Beta-lactamase; assay: inhibition of IMP-1 beta-lactamase activity – biochemical, epi-absorbance, selectivity assay for VIM-2 inhibitor project, dose response (AID 1920)
[20] = target: Ras and Rab interactor 1/Tyrosine-protein kinase ABL1 (Homo sapiens, UniProt P00519+Q13671); assay type: functional;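 also: biochemical TR-FRET dose-response test measuring inhibition of binding between Rin1 and Abl proteins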
[21] = target: Peroxisome proliferator-activated receptor gamma/Nuclear receptor corepressor 2 (Homo sapiens, UniProt P37231+Q9Y618); assay type: functional
[22] = target: T5, Histone-lysine N-methyltransferase NSD2 (Homo sapiens, UniProt O96028); assay type: biochemical
T5 sequence (O96028 whole entry): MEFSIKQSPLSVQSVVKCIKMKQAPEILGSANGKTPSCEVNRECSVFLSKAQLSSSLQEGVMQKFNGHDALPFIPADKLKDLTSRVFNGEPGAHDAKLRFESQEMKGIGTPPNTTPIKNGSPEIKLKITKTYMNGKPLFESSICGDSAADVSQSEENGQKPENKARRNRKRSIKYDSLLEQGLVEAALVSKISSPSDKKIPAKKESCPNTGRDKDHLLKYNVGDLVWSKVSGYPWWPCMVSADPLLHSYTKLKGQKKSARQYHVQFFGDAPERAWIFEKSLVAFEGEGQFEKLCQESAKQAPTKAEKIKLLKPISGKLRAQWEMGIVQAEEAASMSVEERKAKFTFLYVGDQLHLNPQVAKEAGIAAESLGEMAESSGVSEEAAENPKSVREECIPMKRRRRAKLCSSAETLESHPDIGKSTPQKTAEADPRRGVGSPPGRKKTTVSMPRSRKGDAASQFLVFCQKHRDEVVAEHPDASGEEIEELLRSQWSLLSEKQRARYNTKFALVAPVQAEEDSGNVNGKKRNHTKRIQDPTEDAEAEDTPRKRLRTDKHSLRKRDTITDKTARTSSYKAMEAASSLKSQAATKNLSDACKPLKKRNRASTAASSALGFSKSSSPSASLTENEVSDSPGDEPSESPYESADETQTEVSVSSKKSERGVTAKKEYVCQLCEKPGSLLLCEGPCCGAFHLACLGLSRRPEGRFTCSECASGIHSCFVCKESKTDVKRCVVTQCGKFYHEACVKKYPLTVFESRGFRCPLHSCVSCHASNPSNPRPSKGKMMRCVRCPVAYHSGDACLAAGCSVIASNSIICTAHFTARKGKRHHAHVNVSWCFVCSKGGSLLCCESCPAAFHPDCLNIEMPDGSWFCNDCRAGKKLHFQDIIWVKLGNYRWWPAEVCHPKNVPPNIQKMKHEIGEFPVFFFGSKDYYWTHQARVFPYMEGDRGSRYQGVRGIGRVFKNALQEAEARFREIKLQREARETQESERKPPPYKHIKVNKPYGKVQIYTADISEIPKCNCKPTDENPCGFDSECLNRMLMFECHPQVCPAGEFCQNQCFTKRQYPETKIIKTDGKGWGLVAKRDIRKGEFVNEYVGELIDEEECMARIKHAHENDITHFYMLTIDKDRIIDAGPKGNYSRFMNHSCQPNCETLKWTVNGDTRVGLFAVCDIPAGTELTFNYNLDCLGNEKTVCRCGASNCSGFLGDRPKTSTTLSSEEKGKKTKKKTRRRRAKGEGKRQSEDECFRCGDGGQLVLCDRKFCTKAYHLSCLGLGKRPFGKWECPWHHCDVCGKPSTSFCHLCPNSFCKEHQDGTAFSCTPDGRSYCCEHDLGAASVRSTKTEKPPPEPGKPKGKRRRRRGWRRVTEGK

[23] = target: Photoreceptor-specific nuclear receptor (Homo sapiens, UniProt Q9Y5X4); assay type: functional;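 also: potency for compounds that break the NR2E3 corepressor complex and count as activators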
Sequence of Photoreceptor-specific nuclear receptor (Q9Y5X4 whole entry): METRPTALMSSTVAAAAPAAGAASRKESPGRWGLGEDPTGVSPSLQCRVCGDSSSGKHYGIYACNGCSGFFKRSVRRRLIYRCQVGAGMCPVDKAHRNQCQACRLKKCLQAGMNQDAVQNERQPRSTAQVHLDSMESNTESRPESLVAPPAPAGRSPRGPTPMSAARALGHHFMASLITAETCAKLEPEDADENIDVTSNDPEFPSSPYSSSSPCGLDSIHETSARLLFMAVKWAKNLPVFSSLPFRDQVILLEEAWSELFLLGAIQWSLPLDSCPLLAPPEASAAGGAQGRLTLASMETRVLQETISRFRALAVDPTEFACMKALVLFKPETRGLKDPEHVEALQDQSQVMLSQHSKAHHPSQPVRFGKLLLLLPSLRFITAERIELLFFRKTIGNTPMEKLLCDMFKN

[24] = Luminescence Cell-Based Dose Retest to Confirm Inhibitors of Cancer Stem Cells. [Related pubchem assays (depositor defined):AID2717, AID2721]; assay type: functional; conditions: Homo sapiens
[25] = viability of uninfected HEp-2 cells – cell-based, HTS, cytotoxicity control for RSV inhibitor project, dose response (AID 2410); assay type: functional; conditions: human respiratory syncytial virus
[26] = target: Cytochrome P450 3A4 (Homo sapiens, UniProt P08684); conditions: Potency;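 also: confirmatory qHTS run detecting inhibitors and substrates of CYP3A4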
Sequence of Cytochrome P450 3A4 (P08684 whole entry): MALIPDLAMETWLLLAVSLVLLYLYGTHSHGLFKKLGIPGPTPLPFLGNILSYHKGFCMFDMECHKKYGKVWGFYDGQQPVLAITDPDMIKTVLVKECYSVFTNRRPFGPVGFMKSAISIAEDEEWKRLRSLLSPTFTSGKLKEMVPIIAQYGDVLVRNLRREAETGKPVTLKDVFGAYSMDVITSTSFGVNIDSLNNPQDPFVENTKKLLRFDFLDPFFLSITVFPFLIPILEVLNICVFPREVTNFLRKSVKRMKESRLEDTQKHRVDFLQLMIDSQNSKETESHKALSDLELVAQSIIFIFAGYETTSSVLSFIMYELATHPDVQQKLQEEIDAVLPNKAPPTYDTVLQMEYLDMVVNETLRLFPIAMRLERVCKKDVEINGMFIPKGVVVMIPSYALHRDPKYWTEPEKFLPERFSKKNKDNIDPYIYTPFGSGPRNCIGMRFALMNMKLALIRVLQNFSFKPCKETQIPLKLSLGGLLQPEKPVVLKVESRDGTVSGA

[27] = target: Cytochrome P450 2C9 (Homo sapiens, UniProt P11712); conditions: Potency
Sequence of Cytochrome P450 2C9 (P11712 whole entry): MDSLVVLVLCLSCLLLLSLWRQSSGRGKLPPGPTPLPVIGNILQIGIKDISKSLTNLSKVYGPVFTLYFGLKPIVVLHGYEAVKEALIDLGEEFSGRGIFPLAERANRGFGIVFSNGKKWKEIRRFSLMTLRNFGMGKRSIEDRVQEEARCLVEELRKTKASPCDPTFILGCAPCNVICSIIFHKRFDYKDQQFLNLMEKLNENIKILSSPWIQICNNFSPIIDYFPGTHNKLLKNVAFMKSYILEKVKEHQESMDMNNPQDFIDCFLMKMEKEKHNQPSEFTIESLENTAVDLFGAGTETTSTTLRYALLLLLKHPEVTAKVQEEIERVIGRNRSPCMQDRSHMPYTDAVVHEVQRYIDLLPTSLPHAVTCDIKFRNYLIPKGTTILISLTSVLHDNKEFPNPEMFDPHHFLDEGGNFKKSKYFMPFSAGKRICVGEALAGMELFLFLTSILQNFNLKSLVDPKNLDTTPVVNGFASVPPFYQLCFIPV

[28] = target: T6, Calpain-2 catalytic subunit (Sus scrofa, UniProt P43367); assay: m-calpain protease blockers, concentration series – biochemical, fluorogenic peptide substrate, dose response (AID 1420); assay type: functional
T6 sequence (P43367 whole entry): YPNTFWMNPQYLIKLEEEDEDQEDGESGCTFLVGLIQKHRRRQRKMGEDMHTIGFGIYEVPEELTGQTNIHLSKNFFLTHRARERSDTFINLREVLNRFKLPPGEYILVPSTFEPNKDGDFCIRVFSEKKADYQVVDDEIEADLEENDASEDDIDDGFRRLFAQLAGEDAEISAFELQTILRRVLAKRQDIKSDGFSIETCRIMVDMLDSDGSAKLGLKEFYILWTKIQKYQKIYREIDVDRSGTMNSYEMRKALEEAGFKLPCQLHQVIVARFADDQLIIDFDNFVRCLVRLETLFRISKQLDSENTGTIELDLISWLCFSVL

[29] = target: T7, Voltage-dependent T-type calcium channel subunit alpha-1H (Homo sapiens, UniProt O95180); assay type: functional
T7 sequence (O95180 whole entry): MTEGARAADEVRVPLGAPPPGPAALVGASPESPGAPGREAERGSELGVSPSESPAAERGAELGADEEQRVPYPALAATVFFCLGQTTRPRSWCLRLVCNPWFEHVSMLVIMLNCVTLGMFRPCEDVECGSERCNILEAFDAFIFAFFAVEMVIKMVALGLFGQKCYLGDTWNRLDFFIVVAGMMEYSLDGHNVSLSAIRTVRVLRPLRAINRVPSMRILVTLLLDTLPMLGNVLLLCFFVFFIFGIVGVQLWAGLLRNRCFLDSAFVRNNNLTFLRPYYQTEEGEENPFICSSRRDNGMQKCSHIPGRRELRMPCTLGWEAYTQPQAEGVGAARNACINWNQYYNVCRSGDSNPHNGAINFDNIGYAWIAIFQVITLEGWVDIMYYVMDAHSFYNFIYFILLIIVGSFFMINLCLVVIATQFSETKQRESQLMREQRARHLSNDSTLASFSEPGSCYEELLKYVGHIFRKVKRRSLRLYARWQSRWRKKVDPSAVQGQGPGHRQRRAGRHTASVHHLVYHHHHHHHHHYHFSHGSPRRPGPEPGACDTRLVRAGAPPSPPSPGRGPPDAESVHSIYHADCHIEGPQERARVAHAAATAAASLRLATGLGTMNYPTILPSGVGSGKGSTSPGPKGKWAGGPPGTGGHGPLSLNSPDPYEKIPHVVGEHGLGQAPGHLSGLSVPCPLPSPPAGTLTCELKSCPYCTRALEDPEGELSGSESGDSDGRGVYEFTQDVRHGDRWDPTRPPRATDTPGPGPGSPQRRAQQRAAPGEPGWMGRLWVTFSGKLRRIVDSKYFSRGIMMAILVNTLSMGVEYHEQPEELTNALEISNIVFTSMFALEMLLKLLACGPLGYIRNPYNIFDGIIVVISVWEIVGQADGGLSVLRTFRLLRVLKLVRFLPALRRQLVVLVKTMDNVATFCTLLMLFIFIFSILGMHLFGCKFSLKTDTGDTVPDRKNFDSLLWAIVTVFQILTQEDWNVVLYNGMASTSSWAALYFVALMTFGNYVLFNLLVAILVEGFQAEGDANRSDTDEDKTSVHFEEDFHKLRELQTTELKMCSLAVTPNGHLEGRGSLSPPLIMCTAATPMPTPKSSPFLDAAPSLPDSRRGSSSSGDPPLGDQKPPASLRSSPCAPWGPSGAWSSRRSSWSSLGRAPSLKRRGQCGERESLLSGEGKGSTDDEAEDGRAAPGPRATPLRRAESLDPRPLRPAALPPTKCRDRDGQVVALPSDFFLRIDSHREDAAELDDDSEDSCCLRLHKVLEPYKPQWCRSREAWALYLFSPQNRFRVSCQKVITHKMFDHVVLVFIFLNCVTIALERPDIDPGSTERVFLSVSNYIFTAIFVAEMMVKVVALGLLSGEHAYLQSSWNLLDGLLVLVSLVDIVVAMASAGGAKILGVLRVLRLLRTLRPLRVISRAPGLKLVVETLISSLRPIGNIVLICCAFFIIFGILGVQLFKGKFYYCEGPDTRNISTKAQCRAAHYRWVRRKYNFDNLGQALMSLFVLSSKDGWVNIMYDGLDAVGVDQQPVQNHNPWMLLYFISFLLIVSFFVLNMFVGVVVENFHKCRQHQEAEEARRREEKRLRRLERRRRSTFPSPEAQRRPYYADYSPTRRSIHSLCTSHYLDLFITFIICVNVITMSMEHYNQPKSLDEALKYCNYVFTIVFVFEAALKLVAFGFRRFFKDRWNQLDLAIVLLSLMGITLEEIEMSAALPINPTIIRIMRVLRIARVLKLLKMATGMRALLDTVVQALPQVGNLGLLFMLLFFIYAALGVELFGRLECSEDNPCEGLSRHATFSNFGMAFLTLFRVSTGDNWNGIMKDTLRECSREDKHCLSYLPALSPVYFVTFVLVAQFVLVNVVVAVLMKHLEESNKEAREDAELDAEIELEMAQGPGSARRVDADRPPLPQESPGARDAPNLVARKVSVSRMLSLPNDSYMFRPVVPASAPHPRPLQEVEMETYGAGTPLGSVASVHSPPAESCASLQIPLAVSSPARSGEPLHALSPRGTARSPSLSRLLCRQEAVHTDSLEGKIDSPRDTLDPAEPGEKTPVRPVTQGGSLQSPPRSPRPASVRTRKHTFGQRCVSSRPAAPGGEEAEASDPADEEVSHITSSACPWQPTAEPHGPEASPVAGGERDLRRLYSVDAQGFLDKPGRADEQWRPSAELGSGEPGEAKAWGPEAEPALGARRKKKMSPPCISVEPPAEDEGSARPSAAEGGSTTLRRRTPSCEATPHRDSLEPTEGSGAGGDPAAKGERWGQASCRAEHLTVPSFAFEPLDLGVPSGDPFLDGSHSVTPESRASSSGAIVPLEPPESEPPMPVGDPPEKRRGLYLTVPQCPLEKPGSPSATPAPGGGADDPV

[30] = target: T7, Voltage-dependent T-type calcium channel subunit alpha-1H; assay: Inhibitors of T-Type Calcium Channels. [Related pubchem assays (depositor defined):AID449739, AID463087, AID489005, AID493041, AID504579, AID504584, AID504619, AID504628]; assay type: functional

Sequence of Scavenger receptor class B member 1 (Q61009 whole entry): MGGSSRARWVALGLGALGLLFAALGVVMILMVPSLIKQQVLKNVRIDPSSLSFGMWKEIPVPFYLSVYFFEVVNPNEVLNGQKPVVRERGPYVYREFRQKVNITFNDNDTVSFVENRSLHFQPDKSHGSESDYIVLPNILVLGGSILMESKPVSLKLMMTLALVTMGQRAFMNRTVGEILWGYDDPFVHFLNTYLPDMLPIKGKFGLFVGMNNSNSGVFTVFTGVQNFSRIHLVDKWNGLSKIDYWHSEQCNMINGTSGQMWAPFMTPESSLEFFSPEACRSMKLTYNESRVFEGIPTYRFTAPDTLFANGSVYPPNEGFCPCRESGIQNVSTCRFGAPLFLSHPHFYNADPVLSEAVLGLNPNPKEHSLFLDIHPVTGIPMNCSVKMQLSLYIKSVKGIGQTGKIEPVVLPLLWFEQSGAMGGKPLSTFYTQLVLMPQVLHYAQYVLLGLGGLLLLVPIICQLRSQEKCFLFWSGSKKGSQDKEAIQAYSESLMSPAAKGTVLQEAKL

CC(C)OCCCNC(=O)c1ccc(C2SCC(=O)N2Cc2ccco2)cc1 (stereo unspecified)
AC50 [1]: 1 µM (active)

CCOc1cc(/C=C\[N+](=O)[O-])ccc1OCC(=O)Nc1ccccc1C
AC50 [2]: < 0.26 µM (active) | EC50 [3]: 7.34 µM (active) | AC50 [4]: 4.63 µM (active) | CC50 [5]: > 40 µM (active) | EC50 [6]: 4.73 µM (active) | IC50 [7]: > 66.6 µM (inactive) | AC50 [8]: 22.5 µM (active) | IC50 [9]: 0.913 µM (active) | EC50 [10]: 12.3 µM (active) | EC50 [11]: 9.86 µM (active) | EC50 [12]: 5.09 µM (active) | IC50 [13]: 1.8 µM (not active) | IC50 [14]: 18.8 µM (not active) | AC50 [15]: 3.66 µM (active)

O=C1Nc2cc(C(=O)N3CCC(N4CCCCC4)CC3)ccc2S/C1=C\c1ccccc1
AC50 [16]: 21.2 µM (active) | IC50 [17]: > 59.6 µM (inactive) | IC50 [18]: > 59.6 µM (inactive) | IC50 [19]: > 59.6 µM (inactive)

Oc1cc(OCc2ccccc2)ccn1
IC50 [20]: 0.0261 µM (active) | IC50 [21]: 16.6 µM (not active) | AC50 [22]: 11.5 µM (active) | IC50 [23]: > 39.8 µM (not active)

COc1ccc(-n2sc3c(c2=S)-c2cc(OC)ccc2NC3(C)C)cc1
AC50 [24]: 2.53 µM (active) | CC50 [25]: 18.4 µM (active) | AC50 [1]: 16.1 µM (active)

COc1ccc(OC)c(-c2ccccc2/C=N/NS(=O)(=O)c2ccc(C)cc2)c1
AC50 [26]: 3.16 µM (inconclusive) | AC50 [27]: 7.94 µM (inconclusive)

CC(C)C[C@H](NC(=O)c1[nH]cnc1C(=O)N[C@@H](C)c1ccccc1)C(=O)OCc1ccccc1
EC50 [3]: 0.656 µM (active) | EC50 [6]: > 150 µM (inconclusive) | IC50 [28]: 5.23 µM (not active) | EC50 [10]: 40.7 µM (active) | EC50 [11]: 5.4 µM (active)

CC(C)(C)n1nnnc1CN1CCN(C(c2ccccc2)c2ccccc2)CC1
EC50 [29]: 6.42 µM (active) | EC50 [30]: 7.64 µM (active)

C/C=C/OC(=O)NC(c1ccccc1)[C@@]1(C(=O)OCC)CCCC1=O (stereo partly specified)
AC50 [27]: 3.98 µM (inconclusive)
